The source of these data is patent US9765018B2, “IDO inhibitors” (BRISTOL-MYERS SQUIBB COMPANY, priority 2013, dated 2017).

For assay [1], the target named is T1, IDO (Homo sapiens (Human), UniProt P14902). The assay can be described thus: Kynurenine assay in IFN-γ-stimulated Hela cells. The class given is cell-based. The settings on record: 20 h, read-out: Hela Kyurenine (IC50). The essentials:
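Kynurenine in supernatant is read at 490 nm after Ehrlich reagent (10 min RT), following TCA stop and 30 min at 50° C hydrolysis. Before that, Hela cells in phenol red-free RPMI/10% FBS were co-treated 20 h at 37° C with 100 ng/mL IFN-γ and compound (30 μM top, 3-fold series to 1.5 nM).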

For a further assay, the target named is Human IDO1 (Homo sapiens (Human), UniProt P14902). Description: IDO Kynurenine Assay with Human IDO1/HEK293 Cells. The class given is cell-based. The note with it: HEK293 cells with human IDO1; read-out: HEK human IDO-1 (IC50). Here is the method: IDO Kynurenine Assay with Human IDO1/HEK293 Cells
Human IDO1/HEK293 cells were seeded at 10,000 cells per 50 uL per well with RPMI/phenol red free media contains 10% FBS in a 384-well black wall clear bottom tissue culture plate (Matrix Technologies LLC) 125 nL of certain concentration of compound was then added to each well using ECHO liquid handling systems. The cells were incubated for 20 hours in 37° C. incubator with 5% CO2.
The compound treatments were stopped by adding Trichloroacetic Acid (Sigma-Aldrich) to a final concentration at 0.2%. The cell plate was further incubated at 50° C. for 30 minute. The equal volume supernatant (20 uL) and 0.2% (w/v) Ehrlich reagent (4-dimethylaminobenzaldehyde, Sigma-Aldrich) in glacial acetic acid were mixed in a new clear bottom 384-well plate. This plate was then incubated at room temperature for 30 minute. The absorbance at 490 nm was measured on Envision plate reader.

The target of assay [2] is T1, IDO. Description: LLE_IDO_ABS_DR (IDO assay, method not described).

Human IDO1, sequence (P14902 whole entry): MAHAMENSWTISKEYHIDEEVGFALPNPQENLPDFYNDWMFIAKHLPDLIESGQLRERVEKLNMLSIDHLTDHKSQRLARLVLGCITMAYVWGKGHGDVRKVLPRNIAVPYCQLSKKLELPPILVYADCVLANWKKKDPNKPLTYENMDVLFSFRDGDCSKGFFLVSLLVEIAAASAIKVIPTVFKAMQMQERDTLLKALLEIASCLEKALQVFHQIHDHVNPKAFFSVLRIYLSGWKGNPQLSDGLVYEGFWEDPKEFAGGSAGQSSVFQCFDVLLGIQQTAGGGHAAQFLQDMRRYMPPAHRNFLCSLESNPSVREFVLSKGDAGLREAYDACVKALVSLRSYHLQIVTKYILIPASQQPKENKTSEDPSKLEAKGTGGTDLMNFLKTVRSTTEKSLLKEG
T1 sequence (P14902 whole entry): as above

Regarding `COc1cccc(NC(=O)Nc2cc(-c3cccc(C(=O)O)c3)ccc2Oc2ccccc2C(C)(C)C)c1` [Example 229, 4′-(2-tert-butylphenoxy)-3′-(3-(3-methoxyphenyl)ureido)biphenyl-3-carboxylic acid], the IC50 came out at 1890 nM on IDO [1] and 7500 nM on Human IDO1.
For `Cc1ccccc1NC(=O)Nc1cc(-c2cccc(C(=O)O)c2)ccc1Oc1ccccc1C(C)(C)C` [Example 224, 4′-(2-tert-butylphenoxy)-3′-(3-o-tolylureido) biphenyl-3-carboxylic acid], in that order: 1020 nM and 7500 nM.
The matching figures for `COc1ccc(-c2ccc(Oc3cccc4c3OC(C)(C)C4)c(NC(=O)Nc3ccc(C)cc3)c2)cc1C(=O)O` [Example 135, 4′-(2,2-dimethyl-2,3-dihydrobenzofuran-7-yloxy)-4-methoxy-3′-(3-p-tolylureido)biphenyl-3-carboxylic acid]: 2240 nM and 5170 nM.
As to `CC(C)(C)c1ccccc1Oc1ccc(-c2cccc(C(=O)O)c2)cc1NC(=O)Nc1ccc(Br)cc1` [Example 233, 3′-(3-(4-bromophenyl)ureido)-4′-(2-tert-butylphenoxy) biphenyl-3-carboxylic acid], the IC50 at IDO [1] stood at 2890 nM; on Human IDO1, 7500 nM.
For `Cc1ccc(NC(=O)Nc2cc(-c3cncc(C(=O)O)c3)cnc2Oc2ccccc2)cc1` [Example 339], in that order: 2420 nM and 6180 nM.
For `Cc1ccc(NC(=O)Nc2cc(-c3cccc(C(=O)O)c3)ccc2Oc2ccccc2C(C)(C)C)cc1` [Example 226, 4′-(2-tert-butylphenoxy)-3′-(3-p-tolylureido) biphenyl-3-carboxylic acid], in that order: 790 nM and 9190 nM.
For `CC(C)(C)c1ccccc1Oc1ccc(-c2cccc(C(=O)O)c2)cc1NC(=O)Nc1ccc(OC(F)F)cc1` [Example 223, 4′-(2-tert-butylphenoxy)-3′-(3-(4-(difluoromethoxy)phenyl)ureido) biphenyl-3-carboxylic acid], in that order: 2640 nM and 7500 nM.
As for `CC(C)(C)c1ccccc1Oc1ccc(-c2cccc(C(=O)O)c2)cc1NC(=O)Nc1ccc(Cl)cc1` [Example 232, 4′-(2-tert-butylphenoxy)-3′-(3-(4-chlorophenyl)ureido)biphenyl-3-carboxylic acid], the values for the IC50 on IDO [1] and on Human IDO1 were 1800 nM and 7500 nM, respectively.
With `CCCCNC(=O)Nc1cc(-c2ccccc2-c2nnn[nH]2)ccc1Oc1ccccc1C(C)(C)C` [Example 191, 1-butyl-3-(4-(2-tert-butylphenoxy)-2′-(1H-tetrazol-5-yl)biphenyl-3-yl)urea], the 50% inhibitory concentration (IC50) was determined as 1210 nM on IDO [2] and 340 nM at IDO [1].
As to `Cc1ccc(NC(=O)Nc2cc(-c3cc(Cl)cc(C(=O)O)c3)cnc2Oc2ccccc2C(C)(C)C)cc1` [Example 337], the values for the half-inhibitory concentration (IC50) on IDO [1] and on Human IDO1 were 2260 nM and 7500 nM, respectively.
In the case of `Cc1cccc(NC(=O)Nc2cc(-c3ccc(C(=O)O)c(Cl)c3)ccc2Oc2ccccc2C(C)(C)C)c1` [Example 213, 4′-(2-tert-butylphenoxy)-3-chloro-3′-(3-m-tolylureido) biphenyl-4-carboxylic acid], the IC50 against IDO [2] came to 2560 nM; at IDO [1], 930 nM.
The matching figures for `COc1ccc(-c2ccc(Oc3c(C)cccc3C(C)(C)C)c(NC(=O)Nc3ccccc3Cl)c2)cc1C(=O)O` [Example 54, 4′-(2-tert-butyl-6-methylphenoxy)-3′-(3-(2-chlorophenyl)ureido)-4-methoxybiphenyl-3-carboxylic acid]: 2540 nM and 510 nM.
For `COc1ccc(-c2ccc(Oc3cccc(C)c3C)c(NC(=O)Nc3ccccc3C)c2)cc1C(=O)O` [Example 121, 4′-(2,3-dimethylphenoxy)-4-methoxy-3′-(3-o-tolylureido)biphenyl-3-carboxylic acid], in that order: 390 nM and 110 nM.
For `O=C(Nc1ccc(Cl)cc1)Nc1cc(-c2ccc(C(=O)O)c(Cl)c2)ccc1Oc1ccccc1C(F)(F)F` [Example 206, 3-chloro-3′-(3-(4-chlorophenyl)ureido)-4′-(2-(trifluoromethyl)phenoxy)biphenyl-4-carboxylic acid], in that order: 3350 nM and 850 nM.
Take `CC(C)(C)c1ccccc1Oc1ccc(-c2cc(Cl)ccc2C(=O)O)cc1NC(=O)Nc1ccccc1Cl` [Example 166, 4′-(2-tert-butylphenoxy)-5-chloro-3′-(3-(2-chlorophenyl)ureido)biphenyl-2-carboxylic acid]: the half-inhibitory concentration (IC50) against IDO [2] was 3630 nM; on IDO [1], 1300 nM.
On to `COc1ccc(-c2ccc(Oc3ccccc3C3CC3)c(NC(=O)Nc3ccccc3Cl)c2)cc1C(=O)O` [Example 124, 3′-(3-(2-chlorophenyl)ureido)-4′-(2-cyclopropylphenoxy)-4-methoxybiphenyl-3-carboxylic acid], for which the half-maximal inhibitory concentration (IC50) on IDO [2] is 820 nM; at IDO [1], 140 nM.
The matching figures for `COc1ccc(-c2ccc(Oc3ccccc3C(C)(C)C)c(NC(=O)Nc3cccc(Cl)c3Cl)c2)cc1C(=O)O` [Example 81, 4′-(2-(tert-butyl)phenoxy)-3′-(3-(2,3-dichlorophenyl)ureido)-4-methoxy-[1,1′-biphenyl]-3-carboxylic acid]: 320 nM and 130 nM.
Consider `Cc1ccccc1NC(=O)Nc1cc(-c2cc(Cl)cc(C(=O)O)c2)ccc1Oc1ccccc1C(C)(C)C` [Example 238, 4′-(2-tert-butylphenoxy)-5-chloro-3′-(3-o-tolylureido) biphenyl-3-carboxylic acid], for which the IC50 on IDO [2] turned out to be 10000 nM; on IDO [1], 440 nM.
The matching figures for `CCCNC(=O)Nc1cc(-c2ccc(OC)c(C(=O)O)c2)ccc1Oc1cccc2c1CCCC2` [Example 118, 4-methoxy-3′-(3-propylureido)-4′-(5,6,7,8-tetrahydronaphthalen-1-yloxy)biphenyl-3-carboxylic acid]: 1060 nM and 920 nM.
For `COc1ccc(-c2ccc(Oc3ccccc3C(C)(C)C)c(NC(=O)Nc3ccc(C)cc3C)c2)cc1C(=O)O` [Example 94, 4′-(2-(tert-butyl)phenoxy)-3′-(3-(2,4-dimethylphenyl)ureido)-4-methoxy-[1,1′-biphenyl]-3-carboxylic acid], in that order: 3060 nM and 170 nM.
For `COc1ccc(-c2ccc(Oc3cccc4c3OC(C)(C)C4)c(NC(=O)Nc3cccc(C)c3)c2)cc1C(=O)O` [Example 140, 4′-(2,2-dimethyl-2,3-dihydrobenzofuran-7-yloxy)-4-methoxy-3′-(3-m-tolylureido)biphenyl-3-carboxylic acid], in that order: 3850 nM and 970 nM.
In the case of `COc1ccc(NC(=O)Nc2cc(-c3cccc(C(=O)O)c3)ccc2Oc2ccccc2C(C)(C)C)cc1` [Example 230, 4′-(2-tert-butylphenoxy)-3′-(3-(4-methoxyphenyl)ureido)biphenyl-3-carboxylic acid], the half-inhibitory concentration (IC50) on IDO [1] is 1810 nM; on Human IDO1, 7500 nM.
In the case of `COc1ccc(-c2ccc(Oc3cccc(C(C)(C)C)c3)c(NC(=O)Nc3ccccc3C)c2)cc1C(=O)O` [Example 111, 4′-(3-tert-butylphenoxy)-4-methoxy-3′-(3-o-tolylureido)biphenyl-3-carboxylic acid], the half-maximal inhibitory concentration (IC50) against IDO [2] was found to be 430 nM; at IDO [1], 180 nM.
